Measured values published in PubChem BioAssay AID1250 (SRMLSC, 2008).
The source made the active and inactive calls.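 Rule for the calls: active = inhibition of at least 30% at one or more tested concentrations; inactive = inhibition below 30% at every dose.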

Test: antiviral protection against BTV-induced cell death – arbovirus, BSR cells, confirmation (AID 1250)
Conditions: BSR cells, Bluetongue virus CPE, ATP luminescence, 72 h; at 20 µM (top of the series)

Q: For `COc1cc(-c2nnc(-c3ccc(N4CCOCC4)cc3)o2)cc(OC)c1OC`, which CPE inhibition is on record?
A: The CPE inhibition was 8.33% (inactive).

Q: Which CPE inhibition does the source give for `CCCc1cc(=O)[nH]c(SCC(=O)NC)n1` here?
A: Its CPE inhibition is -0.15% (inactive).

Q: With `c1ccc(CSc2ccc(-c3cccnc3)nn2)nc1` as the molecule, how does the CPE inhibition read?
A: The CPE inhibition was 0.68% (inactive).

Q: Which CPE inhibition does the source give for `O=C(O)c1cc(-c2ccc(/C=N/Nc3ccc([N+](=O)[O-])cn3)o2)ccc1Cl` here?
A: Its CPE inhibition is 21.4% (inactive).

Q: Which CPE inhibition does the source give for `O=C1NC(=O)/C(=C\c2ccc(Oc3ccc([N+](=O)[O-])cn3)cc2)S1` here?
A: Its CPE inhibition is 12.8% (inactive).

Q: For `COC(=O)c1c(-c2ccccc2)csc1N1C(=O)Nc2ccccc2N1O`, which CPE inhibition is on record?
A: Its CPE inhibition is 10.9% (inactive).

Q: Which CPE inhibition does the source give for `CC1CCN(C2=NC(=O)/C(=C/c3cn[nH]c3-c3ccccc3)S2)CC1` here?
A: The CPE inhibition was -2.7% (inactive).

Q: Which CPE inhibition does the source give for `O=C(O)c1cc(N/N=C2/CC(c3ccccc3)Oc3ccccc32)ccc1Cl` (stereo not drawn) here?
A: Its CPE inhibition is 16.6% (inactive).

Q: Which CPE inhibition does the source give for `COc1ccc(OC)c(NC(=O)c2cc(-c3ccc(C)cc3O)n[nH]2)c1` here?
A: Its CPE inhibition is 9.4% (inactive).

Q: Which CPE inhibition does the source give for `O=S(=O)(Nc1ccc(-c2nnc(SCc3ccc(Cl)cc3)o2)cc1)c1ccccc1` here?
A: The CPE inhibition was 7.09% (inactive).

Q: With `Cc1nn(CC(=O)OCCOc2ccc(Br)cc2)c(C)c1[N+](=O)[O-]` as the molecule, how does the CPE inhibition read?
A: Its CPE inhibition is 2.41% (inactive).

Q: Which CPE inhibition does the source give for `CC(=O)Nc1ccc(NC(=O)COc2ccccc2C(=O)Nc2cccc(Cl)c2Cl)cc1` here?
A: The CPE inhibition was 15% (inactive).

Q: Which CPE inhibition does the source give for `O=C(Nc1scc(-c2ccc(F)cc2)c1C(=O)O)c1ccco1` here?
A: Its CPE inhibition is 10% (inactive).

Q: With `COc1ccc(C(=O)Nc2cc(Cl)ccc2C(=O)O)cc1` as the molecule, how does the CPE inhibition read?
A: Its CPE inhibition is 17.7% (inactive).

Q: With `CCCc1cc(=O)[nH]c(SCc2ccc(C#N)cc2)n1` as the molecule, how does the CPE inhibition read?
A: The CPE inhibition was 14.6% (inactive).

Q: With `CC(C)CSC1=NSC2=NC(=O)/C(=C\c3coc4ccccc4c3=O)C(=N)N12` as the molecule, how does the CPE inhibition read?
A: Its CPE inhibition is 14% (inactive).

Q: Which CPE inhibition does the source give for `COc1cccc(C(=O)Nc2cccc(C(=O)NC3=NN(c4c(Cl)cc(Cl)cc4Cl)C(=O)C3)c2)c1` here?
A: Its CPE inhibition is 18.8% (inactive).

Q: Which CPE inhibition does the source give for `COc1ccccc1/C=C/C=C1N=C(/C=C/c2ccc(Cl)cc2)OC/1=O` here?
A: The CPE inhibition was 25.2% (inactive).

Q: For `CN1CCc2nc3sc(C#N)c(N)c3c(-c3cccs3)c2C1`, which CPE inhibition is on record?
A: The CPE inhibition was 10.1% (inactive).

Q: For `O=C(Nc1ccccc1C(=O)O)c1cccc(NC(=O)c2ccc(Br)o2)c1`, which CPE inhibition is on record?
A: Its CPE inhibition is 7.57% (inactive).

Q: Which CPE inhibition does the source give for `Cc1ccc(NC(=O)/C(=C/C=C/c2ccccc2)NC(=O)c2ccccc2)cc1` here?
A: The CPE inhibition was 19.4% (inactive).

Q: With `Cc1nn(-c2ccccc2)c2nc(C(F)(F)F)[nH]c(=O)c12` as the molecule, how does the CPE inhibition read?
A: Its CPE inhibition is 20% (inactive).

Q: For `COc1ccc(-c2noc(-c3cc(C)cc(C)c3)n2)cc1OC`, which CPE inhibition is on record?
A: The CPE inhibition was 10% (inactive).

Q: For `COCCCNCC1C(Oc2ccc(Cl)cc2)C(=O)N1c1ccccc1C` (stereo not drawn), which CPE inhibition is on record?
A: The CPE inhibition was 14.4% (inactive).

Q: With `O=C(CSCc1ccccc1)Nc1cccc(C(=O)Nc2ccccc2C(=O)O)c1` as the molecule, how does the CPE inhibition read?
A: Its CPE inhibition is 9.16% (inactive).

Q: Which CPE inhibition does the source give for `Cc1cc(F)ccc1S(=O)(=O)Nc1ncnc2scc(-c3ccc(F)cc3)c12` here?
A: Its CPE inhibition is 21.7% (inactive).

Q: With `O=C1CC(N2CCC(Cc3ccccc3)CC2)C(=O)N1CCc1ccccc1` (stereo not drawn) as the molecule, how does the CPE inhibition read?
A: Its CPE inhibition is 3.89% (inactive).

Q: For `CCCCCCCCCCCC(=O)NC(C(=O)O)C(O)c1ccccc1` (stereo not drawn), which CPE inhibition is on record?
A: The CPE inhibition was 11.5% (inactive).

Q: With `CCc1ccc(S(=O)(=O)c2ccc(-n3nc(C)cc3N)cc2)cc1` as the molecule, how does the CPE inhibition read?
A: Its CPE inhibition is 6.14% (inactive).

Q: With `CCC(C)Sc1nc2c(c(=O)[nH]1)C(c1cccs1)C1=C(CCCC1=O)N2` (stereo not drawn) as the molecule, how does the CPE inhibition read?
A: Its CPE inhibition is 10.1% (inactive).

Q: With `COc1cc(C2N=C(c3ccccc3)NO2)cc(Br)c1O` (stereo not drawn) as the molecule, how does the CPE inhibition read?
A: Its CPE inhibition is 18.4% (inactive).

Q: With `CCOC(=O)c1sc(NC(=S)NC(=O)c2cccc(Cl)c2)c(C(=O)OCC)c1C` as the molecule, how does the CPE inhibition read?
A: Its CPE inhibition is 1.04% (inactive).

Q: Which CPE inhibition does the source give for `Cc1ccc(CSc2nnc(NC(=O)C3COc4ccccc4O3)s2)cc1` (stereo not drawn) here?
A: The CPE inhibition was 26.6% (inactive).

Q: For `O=C(CCl)N=c1sccn1Cc1cccc2ccccc12`, which CPE inhibition is on record?
A: The CPE inhibition was 7.67% (inactive).

Q: Which CPE inhibition does the source give for `CSc1nc(C)c(CCO)c(=O)[nH]1` here?
A: Its CPE inhibition is 3.71% (inactive).

Q: With `C/C(C/C(C)=C1/SC(=S)NC1=O)=C1\SC(=S)NC1=O` as the molecule, how does the CPE inhibition read?
A: The CPE inhibition was 6.76% (inactive).

Q: With `CCOC(=O)c1cnc(SCc2nc(N)nc(Nc3ccc(C)cc3)n2)nc1N` as the molecule, how does the CPE inhibition read?
A: Its CPE inhibition is 29.3% (inactive).

Q: For `Fc1ccccc1N1CCN(c2ncnc3[nH]ncc23)CC1`, which CPE inhibition is on record?
A: The CPE inhibition was 7.21% (inactive).

Q: With `N#Cc1c(-c2ccco2)nc(SCC(=O)Nc2ccc(S(N)(=O)=O)cc2)[nH]c1=O` as the molecule, how does the CPE inhibition read?
A: Its CPE inhibition is 4.9% (inactive).

Q: For `O=c1oc(-c2cccs2)nc2sc3c(c12)CCCC3`, which CPE inhibition is on record?
A: The CPE inhibition was 21.2% (inactive).

Q: For `O=CNCC(=O)NCCc1ccc(Cl)cc1`, which CPE inhibition is on record?
A: Its CPE inhibition is 1.49% (inactive).

Q: For `COc1cccc(CN=C2Nc3ccccc3CS2)c1`, which CPE inhibition is on record?
A: Its CPE inhibition is -0.42% (inactive).

Q: Which CPE inhibition does the source give for `CC(C)CC1=NN2C(=N)/C(=C\c3coc4ccccc4c3=O)C(=O)N=C2S1` here?
A: Its CPE inhibition is 13.5% (inactive).

Q: With `COc1ccc(OC)c(/C=N\NC(=O)CC(=O)NCCc2ccccc2)c1` as the molecule, how does the CPE inhibition read?
A: Its CPE inhibition is -1.6% (inactive).

Q: For `Cc1cccc(-n2nc(C)c3c(C(=O)O)cc(-c4cccs4)nc32)c1`, which CPE inhibition is on record?
A: Its CPE inhibition is 24.9% (inactive).

Q: Which CPE inhibition does the source give for `CSc1nsc2nc(=O)c(/C=C3\C=Nc4ccccc43)c(N)n12` here?
A: Its CPE inhibition is 20.5% (inactive).

Q: With `CCSc1nnc(NC(=O)CSc2nnc(Cc3cccn3C)n2-c2ccc(F)cc2)s1` as the molecule, how does the CPE inhibition read?
A: Its CPE inhibition is 13.9% (inactive).

Q: With `Cc1ccc(C2CC(=O)c3cnn(-c4nc(C)cc(C)n4)c3C2)cc1` (stereo not drawn) as the molecule, how does the CPE inhibition read?
A: The CPE inhibition was 5.7% (inactive).
